Data from patent US20040116418A1, “Compounds and methods for inhibition of HIV and related viruses” (Medivir AB, priority 1994, published 2004).
Values joined by “and” are separate entries in the source; they are usually repeats but may differ in a detail not shown here. Equal entries are not always repeated. Where two headings read alike, the source gives them in different places.

Legend:
recombinant HIV-RT = recombinant HIV-RT (Human immunodeficiency virus type 1 group M subtype B, UniProt P04585); assay: Test I (HIVRT (rAdt)): direct inhibitory activity on HIV-RT; assay type: biochemical
Procedure: 100 mM Tris-HCl pH 7.6, 100 mM KCl, 4 mM MgCl2, 4 mM DTT, 275 mg/ml BSA, 0.5 mg (rA)n(dT)12-18 and 0.3 mM ^3H-=dTTP (specific activity 18.000 cpm/mol). After 60 minutess of incubation 40 ml in duplicate were spotted on paper discs and washed in 5% TCA. After rinsing the paper discs in ethanol they were dried and counted in scintillation fluid.

HIV virus = assay: Test A (XTT): reduction of virus-caused cytotoxicity in MT4 cells; assay type: cell-based; conditions: for inhibition at 0.01 µg/mL: 0.01 μg/ml; for % inhibition: Test A
Procedure: Tests A, B, C, and D (XTT)
MT4 cells in a medium of RPMI 1640, 5% FCS, penicillin/streptomycin are adjusted to 2×10^5 cells/ml and seeded into microplates (96 wells/plate) […] cell suspension/well giving 2×10^4 cells/well. The compound to be tested is made into a 10 mg/ml mixture in DMSO and stored at −20° C. […] Further dilutions to […] are made in medium containing microplates. Fifty ml of the 400, 40, and 4 mg/ml are transferred to the cell-containing microplates with a multi-channel pipette (final concentration: 100, 10, and 1 mg/ml). Finally, […] of virus suspension is added to each well (with a repetitive “Eppendorf” multipipett). […] The plate is put into a plastic bag and incubated for six days in CO2 atmosphere.
To each well in the plate is added 50 ml of XTT ((2,3-bis[2-methoxy-4-nitro-5-sulfophenyl]-5-[(phenylamin o)carbonyl]-2H-tetrazolium hydroxide), (1 mg/ml 0.01-0.02 mM N-metyl-phenazonium methosulfate). After six hours of incubation in C02 atmosphere the plates are covered with adhesive plate sealers and gently mixed on a vortex. Optical densities are determined at a wavelength of 450 nm and a reference wavelength of 650 nm. The percent reduction of cytotoxocity caused by the virus infection is calculated as follows: [formula]

[1] = headed 0.1 μg/ml (after 0.001 μg/ml)
[2] = Human immunodeficiency virus 1, MT4
[3] = Human immunodeficiency virus 1, MT4, Test A
[4] = Human immunodeficiency virus 1, MT4, Test A, 100 μg/ml, read-out: % inhibition

Structure (SMILES): O=C(Nc1ccc(Cl)cn1)N[C@H]1CC1c1c(F)cccc1F (some centres unmarked)
- % inhibition (recombinant HIV-RT; 0.001 μg/ml): 62%
- inhibition at 0.001 µg/mL (recombinant HIV-RT; 0.001 μg/ml): 55%
- % inhibition (recombinant HIV-RT; 0.01 μg/ml): 93%
- inhibition at 0.01 µg/mL (recombinant HIV-RT; 0.01 μg/ml): 89%
- % inhibition (recombinant HIV-RT; 0.1 μg/ml): 97%
- inhibition at 0.1 µg/mL (recombinant HIV-RT; 0.1 μg/ml): 98%
- inhibition at 1 µg/mL (recombinant HIV-RT; 1 μg/ml): 100%
- % inhibition (recombinant HIV-RT; [1]): 6% and 16%
- inhibition at 0.1 µg/mL (HIV virus; [2]): 100%
- inhibition at 10 µg/mL (HIV virus; [2]): 100%
- inhibition at 100 µg/mL (HIV virus; [2]): 100%
- inhibition at 0.001 µg/mL (HIV virus; Human immunodeficiency virus 1, MT4, Test A, 0.001 μg/ml): 7%
- inhibition at 0.01 µg/mL (HIV virus; [3]): 80%
- inhibition at 100 µg/mL (HIV virus; [4]): 3%
- % inhibition (HIV virus; 0.001 μg/ml): 8%
- % inhibition (HIV virus; 1 μg/ml): 90%

Structure (SMILES): CCOc1ccc(F)c(CCNC(=O)Nc2ccc(Br)cn2)c1Cl
- % inhibition (recombinant HIV-RT; [1]): 13% and 18%

Structure (SMILES): CCOc1ccc(F)c(C2C[C@@H]2NC(=O)Nc2ccc(Cl)cn2)c1Cl (some centres unmarked)
- % inhibition (recombinant HIV-RT; 0.001 μg/ml): 30%
- inhibition at 0.001 µg/mL (recombinant HIV-RT; 0.001 μg/ml): 46%
- % inhibition (recombinant HIV-RT; 0.01 μg/ml): 80%
- inhibition at 0.01 µg/mL (recombinant HIV-RT; 0.01 μg/ml): 82%
- inhibition at 0.1 µg/mL (recombinant HIV-RT; 0.1 μg/ml): 96%
- % inhibition (recombinant HIV-RT; 1 μg/ml): 97%
- inhibition at 1 µg/mL (recombinant HIV-RT; 1 μg/ml): 99%
- IC50 (recombinant HIV-RT; read-out: IC50 (converted)): 2.86 nM and 5.21 nM
- inhibition at 0.01 µg/mL (HIV virus; [3]): 100%
- inhibition at 0.1 µg/mL (HIV virus; Human immunodeficiency virus 1, MT4, Test A, 0.1 μg/ml, read-out: % inhibition): 100%
- inhibition at 1 µg/mL (HIV virus; Human immunodeficiency virus 1, MT4, Test A, 1 μg/ml): 87%
- inhibition at 10 µg/mL (HIV virus; Human immunodeficiency virus 1, MT4, Test A, 10 μg/ml, read-out: % inhibition): 88%
- inhibition at 100 µg/mL (HIV virus; [4]): 24%
- % inhibition (HIV virus; 100 μg/ml): 30%

Structure (SMILES): O=C(Nc1ccc(Cl)cn1)N[C@@H]1C[C@@H]1c1cccc([N+](=O)[O-])c1 (racemic) [Example 21, (+,−)-N-(cis-2-(3-Nitrophenyl)-cyclopropyl)-N′-(5-chloropyrid-2-yl)-urea]
- IC50 (recombinant HIV-RT; read-out: IC50 (converted)): 150 nM

Structure (SMILES): CC(=O)c1cccc([C@H]2C[C@H]2NC(=O)Nc2ccc(Cl)cn2)c1 (racemic) [Example 23, (+,−)-N-(cis-2-(3-Acetylphenyl)-cyclopropyl)-N′-(5-chloropyrid-2-yl)-urea]
- IC50 (recombinant HIV-RT; read-out: IC50 (converted)): 15.2 nM and 42.5 nM

Structure (SMILES): O=C(Nc1ccc(Br)cn1)N[C@@H]1C[C@H]1c1c(F)cccc1F (relative stereo) [Example 27, (1R,2S)-N-(cis-2-(2,6-Difluorophenyl)-cyclopropyl)-N′-(5-bromopyrid-2-yl)-urea]
- IC50 (recombinant HIV-RT): 0.5 ng/mL and 0.6 ng/mL

Structure (SMILES): N#Cc1ccc(NC(=O)N[C@@H]2C[C@@H]2c2c(F)cccc2Cl)nc1 (relative stereo) [Example 33, N-(cis-2-(2-chloro-6-fluorophenyl)-cyclopropyl)-N′-(5-cyanopyrid-2-yl)-urea]
- melting point: 189 °C

Structure (SMILES): COCOc1c(C(C)=O)ccc(F)c1[C@H]1C[C@H]1NC(=O)Nc1ccc(Cl)cn1 (relative stereo) [Example 56, (+,−)-N-(cis-2-(5-Acetyl-2-fluoro-6-methoxymethoxy-phenyl)cyclopropyl)-N′-(5-chloropyrid-2-yl)-urea]
- IC50 (recombinant HIV-RT): 2.2 ng/mL

Structure (SMILES): CC(NC(=O)Nc1ccc(Br)cn1)c1ncccc1F (centres unmarked) [Example 10, N-(3-Fluoropyrid-2-yl)eth-2yl-N′-(5-bromopyrid-2-yl)-urea]
- melting point: 151 to 154 °C

Structure (SMILES): CC(=O)c1ccc(F)c(CCNC(=O)Nc2ccc(Cl)cn2)c1O [Example 58]
- IC50 (recombinant HIV-RT): 38 ng/mL
